Consider 12 compounds from PubChem BioAssay (NCI).

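A five-concentration, 48-hour dose response in 96-well plates underlies each endpoint, interpolated linearly between surrounding concentrations. TGI marks complete inhibition of growth.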

Some test systems named below: HCC-2998 colon; PC-3 prostate; NCI-H226 lung; RPMI-8226 leukemia; MDA-N; EKVX NSCLC; UACC-257 melanoma; MDA-MB-435; KM12 colon; HT29 colon; NCI-H460 lung; SK-OV-3 ovarian; SR leukemia; RXF 393 renal; SNB-75 CNS; DU-145 prostate; MOLT-4 leukemia; COLO 205 colon; NCI-H522 lung.
Holding throughout (experiment): growth of human tumour cells (NCI), 48 h

As to `O=C(Nc1ccccc1)OCCN=C1c2ccccc2CCc2ccccc21`, the TGI was 45.9 µM in the assay on HCC-2998 colon; 82.8 µM in the assay with PC-3 prostate; 55 µM in the assay on NCI-H226 lung; 36.1 µM with RPMI-8226 leukemia; 37.2 µM in the assay on MDA-N; > 100 µM in the assay on EKVX NSCLC. Moreover, the TGI in the assay on UACC-257 melanoma was 54.2 µM; in the assay with MDA-MB-435 it was 43.6 µM; in the assay with KM12 colon, 33.1 µM; with HT29 colon, 37 µM; in the assay on NCI-H460 lung, 44.4 µM; in the assay with SK-OV-3 ovarian, 92.3 µM. Further, the TGI with SR leukemia was 38.9 µM; in the assay with RXF 393 renal it was 50.2 µM; in the assay on SNB-75 CNS it was > 100 µM; in the assay on DU-145 prostate, 91.3 µM; in the assay on MOLT-4 leukemia it was 31.1 µM; in the assay on COLO 205 colon, 33.1 µM.

For `CCCc1nc2c(n1CC)C(=O)c1ccccc1C2=O`, the TGI in the assay with HCC-2998 colon was > 100 µM; with NCI-H522 lung it was > 100 µM; in the assay on PC-3 prostate, > 100 µM; with NCI-H226 lung it was > 100 µM; in the assay with RPMI-8226 leukemia, > 100 µM; in the assay with MDA-N, 49.4 µM. For the same compound, the TGI was 45.6 µM with UACC-257 melanoma; 32.3 µM in the assay with MDA-MB-435; > 100 µM with KM12 colon; 53.3 µM in the assay with HT29 colon; > 100 µM with NCI-H460 lung; > 100 µM with SK-OV-3 ovarian. Besides, the TGI with SR leukemia is > 100 µM; in the assay on RXF 393 renal, 69.1 µM; with SNB-75 CNS, > 100 µM; in the assay on DU-145 prostate, > 100 µM; in the assay on MOLT-4 leukemia, > 100 µM; in the assay on COLO 205 colon it was > 100 µM.

`C=CCN1CCC(c2cc(C(=O)OCC)[nH]c2-c2cc(C)no2)C1=O` (stereo not drawn): the TGI in the assay with HCC-2998 colon, in the assay with PC-3 prostate, in the assay on NCI-H226 lung, in the assay with RPMI-8226 leukemia, in the assay with MDA-N and in the assay with EKVX NSCLC was > 100 µM in each case. Besides, the TGI in the assay on UACC-257 melanoma, in the assay with MDA-MB-435, in the assay on KM12 colon, in the assay with HT29 colon, with NCI-H460 lung and in the assay on SK-OV-3 ovarian was > 100 µM in each case. Also, the TGI with SR leukemia, with RXF 393 renal, with SNB-75 CNS, with DU-145 prostate, in the assay with MOLT-4 leukemia and in the assay with COLO 205 colon was > 100 µM throughout.

Turning to `COC(=O)/C=C/[C@@H]1[C@H](C)N1S(=O)(=O)c1ccc(C)cc1` (stereo partly drawn), the TGI in the assay on HCC-2998 colon, in the assay on NCI-H522 lung, with PC-3 prostate, with NCI-H226 lung, in the assay with RPMI-8226 leukemia and in the assay with MDA-N was > 100 µM in each case. Further, the TGI with EKVX NSCLC, with UACC-257 melanoma, in the assay on MDA-MB-435, in the assay on HT29 colon, with NCI-H460 lung and with SK-OV-3 ovarian was > 100 µM each time. In addition, the TGI in the assay on SR leukemia, with RXF 393 renal, with DU-145 prostate, in the assay with MOLT-4 leukemia and with COLO 205 colon was > 100 µM each time.

On to `C[C@@H]1CC[C@H]2[C@H](C)C(OC3O[C@@H]4O[C@@]5(C)CC[C@H]6[C@H](C)CC[C@@H]([C@@H]3C)[C@@]46O5)O[C@@H]3O[C@@]4(C)CC[C@@H]1[C@]32O4` (stereo partly drawn), for which the TGI in the assay on HCC-2998 colon, with NCI-H522 lung, with PC-3 prostate, in the assay with NCI-H226 lung, in the assay on RPMI-8226 leukemia and in the assay with MDA-N was > 100 µM throughout. The TGI in the assay on EKVX NSCLC, in the assay with UACC-257 melanoma, with MDA-MB-435, in the assay with KM12 colon, with HT29 colon and with NCI-H460 lung was > 100 µM throughout. Besides, the TGI with SK-OV-3 ovarian, in the assay with SR leukemia, with SNB-75 CNS, with DU-145 prostate, in the assay with MOLT-4 leukemia and in the assay with COLO 205 colon was > 100 µM in each case.

In the case of `CC(=O)N1C(Nc2nccs2)CCN1c1ccccc1` (stereo not drawn), the TGI in the assay with HCC-2998 colon, in the assay with PC-3 prostate, in the assay on NCI-H226 lung, with RPMI-8226 leukemia, in the assay on MDA-N and in the assay with EKVX NSCLC was > 10 µM throughout. In addition, the TGI in the assay on UACC-257 melanoma, with MDA-MB-435, in the assay on HT29 colon, with NCI-H460 lung, in the assay with SR leukemia and in the assay on RXF 393 renal was > 10 µM each time. For the same compound, the TGI in the assay on SNB-75 CNS, in the assay on DU-145 prostate, with MOLT-4 leukemia and in the assay with COLO 205 colon was > 10 µM in each case.

On to `Cc1ccc2nc(NS(=O)(=O)c3cc(C)c(Cl)cc3S)[nH]c2c1`, for which the TGI in the assay on HCC-2998 colon, in the assay with NCI-H522 lung, with PC-3 prostate, in the assay on RPMI-8226 leukemia, with MDA-N and in the assay with EKVX NSCLC was > 100 µM each time. The TGI with UACC-257 melanoma was > 100 µM; in the assay with MDA-MB-435 it was > 100 µM; in the assay with KM12 colon it was > 100 µM; in the assay on HT29 colon it was > 100 µM; in the assay on NCI-H460 lung it was 38.6 µM; with SK-OV-3 ovarian, > 100 µM. The TGI with SR leukemia, in the assay on RXF 393 renal, in the assay on SNB-75 CNS, in the assay with DU-145 prostate, in the assay with MOLT-4 leukemia and in the assay with COLO 205 colon was > 100 µM in each case.

For `CC(C)[C@H]1NC(=O)[C@H]2N=C(S[C@H]2C)[C@@H]2CCCN2C(=O)[C@H](Cc2ccccc2)NC(=O)[C@@H]2CSC(=N2)[C@@H](Cc2ccccc2)NC(=O)[C@@H]2CSC1=N2`, the TGI in the assay with HCC-2998 colon was 28.2 µM; in the assay on NCI-H522 lung, 45 µM; in the assay with PC-3 prostate it was > 50 µM; with NCI-H226 lung it was > 50 µM; in the assay with RPMI-8226 leukemia it was 19.8 µM; in the assay with MDA-N, > 50 µM. Also, the TGI in the assay with EKVX NSCLC, in the assay on UACC-257 melanoma, in the assay with MDA-MB-435, with KM12 colon, with HT29 colon and in the assay on SK-OV-3 ovarian was > 50 µM throughout. For the same compound, the TGI was 19.7 µM with SR leukemia; > 50 µM in the assay on RXF 393 renal; > 50 µM in the assay with DU-145 prostate; 29.5 µM with MOLT-4 leukemia; > 50 µM with COLO 205 colon.

Turning to `CCCCCCCCCCCCOCC1(COCCCCCCCCCCCC)COC(c2ccc(N)cc2)OC1`, the TGI in the assay on HCC-2998 colon, in the assay on PC-3 prostate, in the assay with NCI-H226 lung, in the assay on RPMI-8226 leukemia, in the assay on MDA-N and in the assay on EKVX NSCLC was > 100 µM throughout. In addition, the TGI in the assay on UACC-257 melanoma, in the assay on MDA-MB-435, in the assay with KM12 colon, with HT29 colon, with SK-OV-3 ovarian and with SR leukemia was > 100 µM throughout. Also, the TGI with SNB-75 CNS, in the assay on DU-145 prostate and in the assay on MOLT-4 leukemia was > 100 µM each time.

Consider `Cc1ccc(C(=O)Oc2ccccc2)cc1N=NN(C)C`, for which the TGI in the assay on HCC-2998 colon, in the assay with NCI-H522 lung, in the assay on PC-3 prostate, in the assay on NCI-H226 lung, with RPMI-8226 leukemia and in the assay on MDA-N was > 100 µM throughout. The TGI in the assay on EKVX NSCLC, with UACC-257 melanoma, with MDA-MB-435, with KM12 colon, in the assay with HT29 colon and with NCI-H460 lung was > 100 µM throughout. In addition, the TGI with SK-OV-3 ovarian, in the assay on SR leukemia, with DU-145 prostate, in the assay with MOLT-4 leukemia and in the assay on COLO 205 colon was > 100 µM throughout.

In the case of `Cc1cn(C2CC(N=[N+]=[N-])C(COP(=O)(O)OCC3OC(n4cc(F)c(=O)[nH]c4=O)CC3O)O2)c(=O)[nH]c1=O` (stereo not drawn), the TGI with HCC-2998 colon was > 100 µM; with NCI-H522 lung it was > 100 µM; in the assay on PC-3 prostate, > 100 µM; in the assay with NCI-H226 lung, > 100 µM; in the assay with MDA-N, > 100 µM; in the assay with EKVX NSCLC, 22.7 µM. In addition, the TGI with UACC-257 melanoma was > 100 µM; in the assay on MDA-MB-435, > 100 µM; in the assay with KM12 colon it was > 45.5 µM; in the assay with HT29 colon it was > 100 µM; with NCI-H460 lung it was > 100 µM; in the assay on SK-OV-3 ovarian it was > 100 µM. For the same compound, the TGI was > 100 µM with SR leukemia; > 100 µM in the assay on RXF 393 renal; 21.6 µM in the assay with SNB-75 CNS; > 100 µM in the assay with DU-145 prostate; > 37.2 µM with MOLT-4 leukemia; > 100 µM in the assay on COLO 205 colon.

Consider `NC(=O)[N+](=CC(=S)Nc1ccccc1Cl)C(N)=O`, for which the TGI with HCC-2998 colon, with NCI-H522 lung, in the assay with PC-3 prostate, with NCI-H226 lung, in the assay with RPMI-8226 leukemia and in the assay with MDA-N was > 100 µM throughout. The TGI in the assay with EKVX NSCLC, in the assay on UACC-257 melanoma, with MDA-MB-435, with KM12 colon, in the assay on HT29 colon and in the assay with NCI-H460 lung was > 100 µM throughout. Further, the TGI in the assay with SK-OV-3 ovarian, with SR leukemia, in the assay on RXF 393 renal, with DU-145 prostate, with MOLT-4 leukemia and with COLO 205 colon was > 100 µM in each case.
